Experimental data reported in patent US11401243B2, “Quinoline derived small molecule inhibitors of nicotinamide N-methyltransferase (NNMT) and uses thereof” (priority 2017, dated 2022).
Entries after “also recorded” stand apart in the source; their conditions may differ.

Legend:
[1] = system: differentiating 3T3-L1 cells; assay: Adipocyte differentiation / lipogenesis quantitated with oil red O staining; type: cell-based; settings: for reduction of lipogenesis compared to control untreated adipocytes: oil red O
Protocol: On day 9 post-differentiation, cells were subjected to quantitative oil red O (Thermo Fisher Scientific; Waltham, Mass., USA) staining as adapted and modified from published protocols. Briefly, cells were washed twice with PBS, fixed with 10% formalin for 30 min at room temperature, and stained with oil red O working solution (˜0.2% oil red O in 99% isopropanol) for 30 min. Cells were then washed five times or with sterile water until unincorporated oil red O stain was completely removed. Images of oil red O staining in control and inhibitor-treated cells were digitally photographed using a light microscope (Olympus BX41; Tokyo, Japan). After image capture, 2-propanol (3.5 mL) was added to each dish for 10 min to dissolve the oil red O stain and absorbance was quantified in a plate reader set at 492 nm wavelength. To ensure the absorbance from oil red O staining was within the linear detection range of the plate reader, a calibration curve was established for oil red O staining in adipocytes using a previously described protocol.

[2] = system: differentiated adipocytes (3T3 cells); assay: Quantitative measurement of selected metabolites (NA, SAM, SAH, NAD+) in cultured cells; type: cell-based
Protocol: Sample processing was performed as described above.

[3] = target: recombinant human PRMT3 enzyme (Homo sapiens, UniProt O60678); assay: PRMT3 activity assay (radiometric); type: biochemical; settings: 10 nM to 200 μM (1,8-diMQ) or 600 μM (5-amino-1MQ)
Source text: Test compounds were screened in biochemical assays for activity against three structurally similar methyltransferases, including catechol-O-methyltransferase (COMT), DNA (cytosine-5)-methyltransferase 1 (DNMT1), and protein arginine methyltransferase 3 (PRMT3). Additional biochemical assays were used to test the ability of compounds to inhibit nicotinamide phosphoribosyl transferase (NAMPT) and NAD+-dependent protein deacetylase sirtuin 1 (SIRT1), two enzymes in the NAD+ biosynthesis/salvage pathway. All assays were performed by Reaction Biology Corporation (RBC; Malvern, Pa., USA) and complete assay details are noted below. For each test compound, IC50 values were calculated from dose-response curves established with 10 concentrations of a half-log dilution series. For each assay, established enzyme specific inhibitors were included as positive controls for enzyme function and assay reproducibility. IC50 values were determined by non-linear least-squares fitting of a 4-parameter dose-response curve to collected data points (Graphpad Prism 7.0; La Jolla, Calif., USA).
PRMT3 activity assay. […] The analogues, 1,8-diMQ and 5-amino-1MQ were tested at concentrations from 200 μM-10 nM and 600 μM-10 nM, respectively. Reactions were performed with 5 μM histone H3 (histone L-arginine) substrate, 1 μM radiolabeled S-adenosyl-L-[methyl-3H]methionine (SAM) co-substrate, and recombinant human PRMT3 enzyme. Activity was monitored via quantification of radiolabeled reaction product histone [methyl-3H]-L-arginine.

[4] = target: recombinant human NAMPT enzyme (Homo sapiens, UniProt P43490); assay: NAMPT activity assay (fluorometric); type: biochemical
[5] = Parallel artificial membrane permeability assay (PAMPA); type: in vitro ADME
Protocol: Samples were tested in triplicates in three separate experiments.

[6] = Bi-directional permeability assay with Caco-2 cells; settings: human
Caco-2 cells = assay: as above; settings: Caco-2; listed as 5-amino-1MQ
[7] = target: recombinant human DNMT1 enzyme (Homo sapiens, UniProt P26358); assay: DNMT1 activity assay (radiometric); type: biochemical
[8] = target: T1, recombinant human SIRT-1 (NAD+-dependent) enzyme (Homo sapiens, UniProt Q96EB6); assay: SIRT-1 activity assay (fluorometric); type: biochemical
T1 construct: Reaction Biology Corporation (ran the assay)
T1 sequence (Q96EB6 1-747): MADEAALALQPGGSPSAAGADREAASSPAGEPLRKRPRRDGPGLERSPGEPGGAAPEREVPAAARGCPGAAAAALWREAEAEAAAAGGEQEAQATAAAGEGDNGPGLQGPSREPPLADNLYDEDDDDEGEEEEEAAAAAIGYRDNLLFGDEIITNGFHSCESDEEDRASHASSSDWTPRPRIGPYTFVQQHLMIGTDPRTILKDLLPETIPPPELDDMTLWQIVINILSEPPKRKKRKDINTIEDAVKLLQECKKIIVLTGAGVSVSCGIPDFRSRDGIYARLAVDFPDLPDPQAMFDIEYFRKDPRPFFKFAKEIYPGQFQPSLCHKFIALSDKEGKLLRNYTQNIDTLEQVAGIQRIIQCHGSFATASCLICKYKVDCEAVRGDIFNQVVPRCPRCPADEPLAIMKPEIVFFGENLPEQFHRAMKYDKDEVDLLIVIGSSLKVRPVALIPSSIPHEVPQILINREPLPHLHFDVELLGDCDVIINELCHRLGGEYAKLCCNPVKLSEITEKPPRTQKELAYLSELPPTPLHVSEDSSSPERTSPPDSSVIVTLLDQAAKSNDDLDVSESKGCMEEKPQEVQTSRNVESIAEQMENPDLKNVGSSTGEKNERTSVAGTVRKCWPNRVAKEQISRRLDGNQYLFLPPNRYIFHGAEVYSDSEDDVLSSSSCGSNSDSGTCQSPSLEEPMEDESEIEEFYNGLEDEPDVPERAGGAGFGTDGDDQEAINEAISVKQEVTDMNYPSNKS

Chain of recombinant human NAMPT enzyme (P43490 whole entry): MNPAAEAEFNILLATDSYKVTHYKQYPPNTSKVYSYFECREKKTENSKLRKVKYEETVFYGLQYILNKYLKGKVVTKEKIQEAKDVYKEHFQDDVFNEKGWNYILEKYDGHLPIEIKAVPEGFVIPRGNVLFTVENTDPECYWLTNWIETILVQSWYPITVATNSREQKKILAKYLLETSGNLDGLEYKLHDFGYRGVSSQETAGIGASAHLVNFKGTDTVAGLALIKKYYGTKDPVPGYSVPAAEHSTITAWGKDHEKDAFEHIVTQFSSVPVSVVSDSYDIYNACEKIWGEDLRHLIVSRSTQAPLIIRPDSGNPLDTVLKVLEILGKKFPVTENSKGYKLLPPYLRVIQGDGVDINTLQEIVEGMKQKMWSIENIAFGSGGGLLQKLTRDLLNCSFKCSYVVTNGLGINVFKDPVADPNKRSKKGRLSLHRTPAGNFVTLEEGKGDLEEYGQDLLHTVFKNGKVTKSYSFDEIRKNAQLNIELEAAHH
Chain of recombinant human DNMT1 enzyme (P26358 whole entry): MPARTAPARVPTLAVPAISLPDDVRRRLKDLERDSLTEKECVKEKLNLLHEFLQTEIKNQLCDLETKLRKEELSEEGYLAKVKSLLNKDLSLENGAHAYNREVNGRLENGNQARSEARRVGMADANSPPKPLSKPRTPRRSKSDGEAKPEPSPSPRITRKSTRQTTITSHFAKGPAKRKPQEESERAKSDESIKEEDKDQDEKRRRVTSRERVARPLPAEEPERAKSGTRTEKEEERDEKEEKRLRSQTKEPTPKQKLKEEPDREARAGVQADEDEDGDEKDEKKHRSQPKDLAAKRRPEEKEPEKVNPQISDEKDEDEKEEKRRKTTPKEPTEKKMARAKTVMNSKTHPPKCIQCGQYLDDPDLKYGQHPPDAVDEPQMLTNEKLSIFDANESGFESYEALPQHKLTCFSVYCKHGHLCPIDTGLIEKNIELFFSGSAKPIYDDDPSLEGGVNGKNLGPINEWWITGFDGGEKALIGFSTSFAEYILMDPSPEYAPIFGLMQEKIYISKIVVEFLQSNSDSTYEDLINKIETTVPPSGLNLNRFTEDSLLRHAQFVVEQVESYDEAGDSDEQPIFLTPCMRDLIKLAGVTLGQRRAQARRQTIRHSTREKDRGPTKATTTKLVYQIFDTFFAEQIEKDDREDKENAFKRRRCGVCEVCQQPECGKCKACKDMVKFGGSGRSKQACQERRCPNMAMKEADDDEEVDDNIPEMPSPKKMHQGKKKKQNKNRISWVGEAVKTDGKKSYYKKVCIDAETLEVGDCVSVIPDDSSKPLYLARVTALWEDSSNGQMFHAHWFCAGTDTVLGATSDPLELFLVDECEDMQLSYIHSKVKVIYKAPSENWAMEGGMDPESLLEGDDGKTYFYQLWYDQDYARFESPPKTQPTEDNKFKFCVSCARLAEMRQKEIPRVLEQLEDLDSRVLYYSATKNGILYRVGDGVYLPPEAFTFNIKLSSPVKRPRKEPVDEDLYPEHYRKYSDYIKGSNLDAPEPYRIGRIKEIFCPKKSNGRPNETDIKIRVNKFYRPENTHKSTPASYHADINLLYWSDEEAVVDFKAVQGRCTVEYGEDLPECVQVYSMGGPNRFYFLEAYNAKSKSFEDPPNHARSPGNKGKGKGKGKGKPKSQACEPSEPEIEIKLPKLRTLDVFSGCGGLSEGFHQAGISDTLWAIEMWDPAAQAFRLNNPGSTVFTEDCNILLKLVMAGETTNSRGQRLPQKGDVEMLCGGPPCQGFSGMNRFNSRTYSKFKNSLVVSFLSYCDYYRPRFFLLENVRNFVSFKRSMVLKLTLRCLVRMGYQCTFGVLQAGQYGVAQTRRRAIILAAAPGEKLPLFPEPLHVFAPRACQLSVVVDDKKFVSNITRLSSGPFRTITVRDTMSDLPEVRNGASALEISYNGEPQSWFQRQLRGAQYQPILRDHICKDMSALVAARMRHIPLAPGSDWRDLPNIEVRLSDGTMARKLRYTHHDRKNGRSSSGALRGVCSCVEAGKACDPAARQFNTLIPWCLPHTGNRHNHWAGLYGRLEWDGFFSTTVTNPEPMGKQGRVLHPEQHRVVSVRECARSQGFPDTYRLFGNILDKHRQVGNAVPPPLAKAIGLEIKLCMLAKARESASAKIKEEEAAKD
Chain of recombinant human PRMT3 enzyme (O60678 whole entry): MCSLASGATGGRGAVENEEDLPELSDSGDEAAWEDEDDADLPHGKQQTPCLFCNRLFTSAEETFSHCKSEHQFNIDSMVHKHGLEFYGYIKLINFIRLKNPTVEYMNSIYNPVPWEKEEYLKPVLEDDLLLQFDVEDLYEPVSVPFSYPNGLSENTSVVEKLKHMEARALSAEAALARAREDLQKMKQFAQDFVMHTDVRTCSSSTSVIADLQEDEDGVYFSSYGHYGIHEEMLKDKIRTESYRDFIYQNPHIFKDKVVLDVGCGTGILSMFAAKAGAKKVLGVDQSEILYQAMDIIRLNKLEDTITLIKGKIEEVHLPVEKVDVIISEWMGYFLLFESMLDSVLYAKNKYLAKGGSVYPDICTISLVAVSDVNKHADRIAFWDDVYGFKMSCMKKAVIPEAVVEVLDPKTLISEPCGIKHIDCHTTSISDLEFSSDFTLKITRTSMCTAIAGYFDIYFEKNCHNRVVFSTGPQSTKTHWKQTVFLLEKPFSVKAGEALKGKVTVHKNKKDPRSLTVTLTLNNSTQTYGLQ

C[n+]1cccc2c(N)cccc21 [1j, 5-amino-1-methylquinolin-1-ium iodide]
reduction of lipogenesis compared to control untreated adipocytes ([1]; 30 μM): 50% | reduction of lipogenesis compared to control untreated adipocytes ([1]; 60 μM): 70% | lipid accumulation in differentiating pre-adipocytes (in words) ([1]; 15, 30, 60 μM): concentration-dependent inhibition of lipid accumulation | NAD+ levels vs. control ([2]; 10 μM): significant increase | intracellular SAM levels relative to control adipocytes ([2]; 30 μM): significant increase | increase in NAD+ levels relative to control adipocytes ([2]; 1-60 μM): 1.2-1.6 fold | intracellular levels of NA ([2]; one-way ANOVA): no statistically significant main effect | intracellular levels of SAH ([2]; one-way ANOVA): no statistically significant main effect | inhibition of PRMT3 (in words) [3]: did not inhibit | IC50 ([4]; concentrations above 100 μM could not be tested (assay interference), read-out: IC50, Nicotinamide phosphoribosyl transferase): > 100 µM | inhibition of NAMPT (in words) ([4]; up to 100 μM): did not inhibit | Papp at 4 h, 400 μM ([5]; 400 μM in PBS, 4 h, room temperature, read-out: Flux): 3.01 ×10⁻⁶ cm/s | Permeability Classification (passive transport) ([5]; BCS classification, listed as 5-amino-1MQ): high passive and active transport; also recorded: High permeability | efflux ratio at 2 h, 10 μM ([6]; Caco-2): 1.33 | Papp A→B at 2 h, 10 μM ([6]; Caco-2, pH 7.4): 34.2 ×10⁻⁶ cm/s | Papp B→A at 2 h, 10 μM ([6]; Caco-2, pH 7.4): 45.2 ×10⁻⁶ cm/s | Classification (active transport / efflux) (Caco-2 cells): no detectable efflux; also recorded: High permeability | inhibition of DNMT1 (in words) ([7]; 10 nM to 200 μM (1,8-diMQ) or 600 μM (5-amino-1MQ)): did not inhibit | IC50 ([7]; NI: no inhibition, read-out: IC50, DNA (cytosine-5)-methyltransferase 1): > 200 µM | inhibition of SIRT1 (in words) ([8]; 10 nM-300 μM): did not inhibit | SIRT1 activity (in words) ([8]; 600 μM): minor reduction in SIRT1 activity
